Like-named read-outs stand apart in the source and are kept apart here.
Legend:
[1] = tested on: DU-145; test: NCI in vitro anti-cancer activity, Prostate Cancer; assay type: cell-based
[2] = tested on: SF-295; test: NCI in vitro anti-cancer activity, CNS Cancer; assay type: cell-based
[3] = tested on: MCF7; test: NCI in vitro anti-cancer activity, Breast Cancer; assay type: cell-based
[4] = tested on: SW-620; test: NCI in vitro anti-cancer activity, Colon Cancer; assay type: cell-based
[5] = tested on: LOX IMVI; test: NCI in vitro anti-cancer activity, Melanoma; assay type: cell-based
[6] = tested on: HL-60 (TB); test: NCI in vitro anti-cancer activity, Leukemia; assay type: cell-based; details: Table 29, Leukemia
[7] = tested on: SN12C; test: NCI in vitro anti-cancer activity, Renal Cancer; assay type: cell-based
[8] = tested on: UACC-62; test: NCI in vitro anti-cancer activity, Melanoma; assay type: cell-based
[9] = tested on: SK-MEL-28; test: NCI in vitro anti-cancer activity, Melanoma; assay type: cell-based
[10] = tested on: HT29; test: NCI in vitro anti-cancer activity, Colon Cancer; assay type: cell-based
[11] = tested on: OVCAR-4; test: NCI in vitro anti-cancer activity, Ovarian Cancer; assay type: cell-based
[12] = tested on: ACHN; test: NCI in vitro anti-cancer activity, Renal Cancer; assay type: cell-based
[13] = tested on: SNB-19; test: NCI in vitro anti-cancer activity, CNS Cancer; assay type: cell-based
[14] = tested on: A549/ATCC; assay type: cell-based
[15] = tested on: PC-3; test: NCI in vitro anti-cancer activity, Prostate Cancer; assay type: cell-based
[16] = tested on: HOP-92; assay type: cell-based
[17] = tested on: NCI-H522; assay type: cell-based
[18] = tested on: OVCAR-5; test: NCI in vitro anti-cancer activity, Ovarian Cancer; assay type: cell-based
[19] = tested on: SF-539; test: NCI in vitro anti-cancer activity, CNS Cancer; assay type: cell-based
[20] = molecular target: L. casei DHFR (Lacticaseibacillus casei, UniProt P00381); test: Inhibition of Lactobacillus casei DHFR; assay type: biochemical; details: at […] 10^−5
[21] = molecular target: T1, RL DHFR (Rattus norvegicus, UniProt Q920D2); test: Inhibition of DHFR from rat liver; assay type: biochemical
T1 construct: Toxoplasmosis gondii (Tg) and rat liver (RL); from tissue; host or cells: rat liver
T1 sequence (Q920D2 1-187): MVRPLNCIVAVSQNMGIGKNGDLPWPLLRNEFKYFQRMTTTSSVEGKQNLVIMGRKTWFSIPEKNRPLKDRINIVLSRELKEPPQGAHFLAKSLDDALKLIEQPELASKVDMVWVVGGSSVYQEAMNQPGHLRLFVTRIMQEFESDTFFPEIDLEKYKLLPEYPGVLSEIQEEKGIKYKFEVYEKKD
Experimental: The selectivity ratio is a measure of the selectivity of a compound for Pc DHFR or Tg DHFR and is expressed as the IC50 value of the DHFR from rate liver (RL) divided by the IC50 value of either the Pc DHFR or the Tg DHFR, depending on which organism the compounds are being tested against. For example, the selectivity ratio of a compound is calculated by the following formula: [formula]

[22] = tested on: RPMI-8226; test: NCI in vitro anti-cancer activity, Leukemia; assay type: cell-based; details: Table 29, Leukemia
[23] = tested on: M14; test: NCI in vitro anti-cancer activity, Melanoma; assay type: cell-based
[24] = tested on: CCRF-CEM; test: NCI in vitro anti-cancer activity, Leukemia; assay type: cell-based; details: Table 29, Leukemia
[25] = tested on: NCI/ADR-RES; test: NCI in vitro anti-cancer activity, breast cancer; details: Table 29, Breast Cancer, NCI/ADRRES
Excerpt: (§1) The compounds identified below were further tested for their in vitro anti-cancer activity by the National Cancer Institute.

[26] = tested on: K-562; test: NCI in vitro anti-cancer activity; details: Table 29, Leukemia
Excerpt: as §1

[27] = tested on: U251; test: NCI in vitro anti-cancer activity, CNS Cancer; assay type: cell-based
[28] = tested on: SK-MEL-5; test: NCI in vitro anti-cancer activity, Melanoma; assay type: cell-based; details: Table 29, Melanoma
[29] = tested on: UACC-257; test: NCI in vitro anti-cancer activity, Melanoma; assay type: cell-based; details: Table 29, Melanoma
[30] = tested on: MOLT-4; test: NCI in vitro anti-cancer activity, Leukemia; assay type: cell-based; details: Table 29, Leukemia
[31] = tested on: HOP-62; assay type: cell-based; details: Homo sapiens; HOP-62, Non-Small Cell Lung Cancer
[32] = tested on: CCRF-CEM cells; test: Growth inhibition of CCRF-CEM human leukemia cells, continuous exposure; assay type: cell-based; details: Table 8, continuous (0-120 hours) exposure, read-out: Growth inhibition EC50, CCRF-CEM
[33] = tested on: FaDu; test: Growth inhibition of FaDu human squamous carcinoma cell line; assay type: cell-based; details: Homo sapiens, FaDu; Table 9; continuous (120 hours) exposure; read-out: Growth inhibition EC50, FaDu
[34] = tested on: A253; test: Growth inhibition of A253 human squamous carcinoma cell line; assay type: cell-based; details: Table 9, continuous (120 hours) exposure
Experimental: The performance of these compounds was evaluated against MTX.

[35] = tested on: MCF7/ADR-RES; test: NCI in vitro anti-cancer activity, Breast Cancer; assay type: cell-based; details: Homo sapiens
[36] = tested on: HCC-2998; test: NCI in vitro anti-cancer activity, Colon Cancer; assay type: cell-based; details: Homo sapiens; HCC-2998, Colon Cancer
[37] = tested on: R30dm cells; test: Growth inhibition of R30dm subline (decreased polyglutamate synthase); assay type: cell-based; details: Homo sapiens, Table 8, continuous (0-120 hours) exposure, read-out: Growth inhibition EC50, R30dm
[38] = Table 29, Prostate Cancer, DU-145
[39] = Table 29, Ovarian Cancer, OVCAR-4
[40] = Table 29, Non-Small Cell Lung Cancer
[41] = Table 29, Prostate Cancer, PC-3
[42] = Table 29, Non-Small Cell Lung Cancer, HOP-92
[43] = Table 29, Non-Small Cell Lung Cancer, NCI-H522
[44] = Table 29, Ovarian Cancer, OVCAR-5

L. casei DHFR, sequence (P00381 whole entry): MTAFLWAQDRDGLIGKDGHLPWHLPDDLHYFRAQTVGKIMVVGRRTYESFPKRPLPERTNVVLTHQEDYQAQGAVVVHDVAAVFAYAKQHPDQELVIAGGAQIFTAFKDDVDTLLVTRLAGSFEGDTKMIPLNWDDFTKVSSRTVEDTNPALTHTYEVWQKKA

## COc1ccc(CCc2cn(Cc3ccccc3)c3nc(N)nc(C)c23)cc1 [Compound 113-118]
[1]; [38]
  GI50: > 100 µM
[2]; Table 29, CNS Cancer, SF-295
  GI50: 79.3 µM
[3]; Table 29, Breast Cancer, MCF7
  GI50: 29.6 µM
[4]; Table 29, Colon Cancer, SW-620
  GI50: > 100 µM
[5]; Table 29, Melanoma
  GI50: 50 µM
[6]
  GI50: > 100 µM
[7]; Table 29, Renal Cancer
  GI50: > 100 µM
[8]; Table 29, Melanoma, UACC-62
  GI50: 80 µM
[9]; Table 29, Melanoma, SK-MEL-28
  GI50: > 100 µM
[10]; Table 29, Colon Cancer, HT29
  GI50: 48.4 µM
[11]; [39]
  GI50: 80.1 µM
[12]; Table 29, Renal Cancer
  GI50: 34.8 µM
[13]; Table 29, CNS Cancer, SNB-19
  GI50: > 100 µM
[14]; [40]
  GI50: 99.8 µM
[15]; [41]
  GI50: 64 µM
[16]; [42]
  GI50: 31 µM
[17]; [43]
  GI50: 29.1 µM
[18]; [44]
  GI50: > 100 µM
[19]; Table 29, CNS Cancer
  GI50: 30.2 µM
[20]
  % inhibition obtained at the stated concentration, L. casei DHFR: 0%
[21]; @ 31 μM
  % inhibition RL DHFR: 48% @
[22]
  GI50: > 100 µM
[23]; Table 29, Melanoma, M14
  GI50: 93.6 µM
[24]
  GI50: > 100 µM

## COc1cc(CCc2c[nH]c3nc(N)nc(C)c23)cc(OC)c1OC [Compound 113-154A]
[1]; [38]
  GI50: 75.6 µM
[2]; Table 29, CNS Cancer, SF-295
  GI50: 36.6 µM
[3]; Table 29, Breast Cancer, MCF7
  GI50: 27.2 µM
[25]
  GI50: 25.9 µM
[5]; Table 29, Melanoma
  GI50: 30 µM
[6]
  GI50: 41.8 µM
[7]; Table 29, Renal Cancer
  GI50: 43.1 µM
[8]; Table 29, Melanoma, UACC-62
  GI50: 19.6 µM
[26]
  GI50: 23 µM
[10]; Table 29, Colon Cancer, HT29
  GI50: 10 µM
[11]; [39]
  GI50: 77.8 µM
[12]; Table 29, Renal Cancer
  GI50: 35.7 µM
[13]; Table 29, CNS Cancer, SNB-19
  GI50: 67.4 µM
[14]; [40]
  GI50: 26.1 µM
[27]; Table 29, CNS Cancer, U251
  GI50: 23.4 µM
[15]; [41]
  GI50: 22.2 µM
[16]; [42]
  GI50: 18.2 µM
[28]
  GI50: 37.3 µM
[17]; [43]
  GI50: 25 µM
[19]; Table 29, CNS Cancer
  GI50: 20.4 µM
[29]
  GI50: 56.4 µM
[30]
  GI50: 38.7 µM
[21]; Table 26, read-out: Inhibitory Concentrations (IC50) RL DHFR
  IC50: 2.3 µM
[22]
  GI50: 67.4 µM
[23]; Table 29, Melanoma, M14
  GI50: 29.8 µM

## COc1ccccc1CCc1cn(Cc2ccccc2)c2nc(N)nc(C)c12 [Compound 113-148]
[1]; [38]
  GI50: 13.1 µM
[2]; Table 29, CNS Cancer, SF-295
  GI50: 8.43 µM
[3]; Table 29, Breast Cancer, MCF7
  GI50: 12.6 µM
[25]
  GI50: 6.75 µM
[4]; Table 29, Colon Cancer, SW-620
  GI50: 17.1 µM
[5]; Table 29, Melanoma
  GI50: 13.7 µM
[6]
  GI50: 4.81 µM
[7]; Table 29, Renal Cancer
  GI50: 13.3 µM
[8]; Table 29, Melanoma, UACC-62
  GI50: 12.3 µM
[9]; Table 29, Melanoma, SK-MEL-28
  GI50: 15.7 µM
[26]
  GI50: 5.91 µM
[10]; Table 29, Colon Cancer, HT29
  GI50: 4.77 µM
[11]; [39]
  GI50: 8.88 µM
[12]; Table 29, Renal Cancer
  GI50: 7.99 µM
[13]; Table 29, CNS Cancer, SNB-19
  GI50: 10.9 µM
[14]; [40]
  GI50: 6.46 µM
[27]; Table 29, CNS Cancer, U251
  GI50: 10.4 µM
[15]; [41]
  GI50: 9.47 µM
[16]; [42]
  GI50: 16.3 µM
[28]
  GI50: 5.8 µM
[17]; [43]
  GI50: 8.34 µM
[18]; [44]
  GI50: 10.8 µM
[19]; Table 29, CNS Cancer
  GI50: 7.2 µM
[29]
  GI50: 6.36 µM
[30]
  GI50: 7.46 µM
[21]; @ 85 μM
  % inhibition RL DHFR: 27% @
[23]; Table 29, Melanoma, M14
  GI50: 12 µM
[24]
  GI50: 2.97 µM

## Nc1nc(N)c2c(CNc3ccc(C(=O)N[C@@H](CCC(=O)O)C(=O)O)cc3)c[nH]c2n1 [Compound 9]
[1]; Homo sapiens, DU-145, Prostate Cancer
  GI50: 0.0109 µM
[2]; Homo sapiens, SF-295, CNS Cancer
  GI50: < 0.01 µM
[31]
  GI50: < 0.01 µM
[3]; Homo sapiens, MCF7, Breast Cancer
  GI50: < 0.01 µM
[4]; Homo sapiens, SW-620, Colon Cancer
  GI50: 3.15 µM
[5]; Homo sapiens, Melanoma
  GI50: < 0.01 µM
[7]; Homo sapiens, Renal Cancer
  GI50: < 0.01 µM
[8]; Homo sapiens, UACC-62, Melanoma
  GI50: < 0.01 µM
[9]; Homo sapiens, SK-MEL-28, Melanoma
  GI50: > 100 µM
[32]
  EC50: 0.0128 ± 0.0022 µM
[10]; Homo sapiens, HT-29, HT29, Colon Cancer
  GI50: < 0.01 µM
[11]; Homo sapiens, OVCAR-4, Ovarian Cancer
  GI50: > 100 µM
[33]
  EC50: 0.022 ± 0.004 µM
[12]; Homo sapiens, Renal Cancer
  GI50: < 0.01 µM
[13]; Homo sapiens, SNB-19, CNS Cancer
  GI50: > 100 µM
[14]; Homo sapiens, Non-Small Cell Lung Cancer
  GI50: < 0.01 µM
[27]; Homo sapiens, U-251, U251, CNS Cancer
  GI50: < 0.01 µM
[34]
  EC50: 0.046 ± 0.004 µM
[15]; Homo sapiens, PC-3, Prostate Cancer
  GI50: > 100 µM
[16]; Homo sapiens, HOP-92, Non-Small Cell Lung Cancer
  GI50: 8.4 µM
[17]; Homo sapiens, NCI-H522, Non-Small Cell Lung Cancer
  GI50: > 100 µM
[18]; Homo sapiens, OVCAR-5, Ovarian Cancer
  GI50: > 100 µM
[19]; Homo sapiens
  GI50: < 0.01 µM
[35]
  GI50: < 0.01 µM
[36]
  GI50: < 0.01 µM
[37]
  EC50: 0.036 ± 0.001 µM
[23]; Homo sapiens, M14, Melanoma
  GI50: < 0.01 µM

From patent US6962920B2, “Pyrimidine derivatives and methods of making and using these derivatives” (Duquesne University of the Holy Ghost, priority 1992, dated 2005)
